Results on three molecules are retold here after patent US10814036B2, “Drug-eluting live tissue for transplantation” (BAYLOR UNIVERSITY, priority 2016, dated 2020).

Molecules are shown by their SMILES. “Also recorded” adds a separate entry of the source.

One may read the half-life as the time needed for the level to fall by half in the phase considered. The IC50 is the point on the concentration scale where inhibition reaches its midpoint.

The target of data set [1] is T1, hTLR4 (Homo sapiens, UniProt O00206).
T1 construct: expressed in transfected cells; host or cells: HEK Blue hTLR4 reporter cells
T1 sequence (O00206 24-839): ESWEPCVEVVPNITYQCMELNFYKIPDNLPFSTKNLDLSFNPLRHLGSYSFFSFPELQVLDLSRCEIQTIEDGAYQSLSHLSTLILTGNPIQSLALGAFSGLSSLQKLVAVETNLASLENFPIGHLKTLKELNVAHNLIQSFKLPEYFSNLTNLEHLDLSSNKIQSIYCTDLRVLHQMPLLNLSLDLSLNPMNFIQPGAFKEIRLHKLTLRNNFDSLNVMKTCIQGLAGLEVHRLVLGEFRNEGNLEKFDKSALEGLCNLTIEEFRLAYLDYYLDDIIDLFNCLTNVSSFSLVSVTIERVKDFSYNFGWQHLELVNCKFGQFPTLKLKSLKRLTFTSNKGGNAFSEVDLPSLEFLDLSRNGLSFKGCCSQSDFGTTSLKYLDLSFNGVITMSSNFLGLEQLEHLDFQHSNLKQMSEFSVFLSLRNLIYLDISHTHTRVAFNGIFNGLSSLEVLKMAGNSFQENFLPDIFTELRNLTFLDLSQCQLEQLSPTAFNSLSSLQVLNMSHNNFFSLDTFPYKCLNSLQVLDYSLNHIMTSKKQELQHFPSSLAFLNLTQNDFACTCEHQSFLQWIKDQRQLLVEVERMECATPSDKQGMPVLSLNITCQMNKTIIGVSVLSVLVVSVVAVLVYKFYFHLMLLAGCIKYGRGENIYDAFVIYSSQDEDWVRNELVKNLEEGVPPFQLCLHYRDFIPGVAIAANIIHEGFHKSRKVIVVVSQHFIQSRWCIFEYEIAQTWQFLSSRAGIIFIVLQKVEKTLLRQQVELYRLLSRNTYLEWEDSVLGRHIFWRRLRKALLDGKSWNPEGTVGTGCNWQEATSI
Kind of data set: HEK Blue hTLR4 reporter cells, TLR4-mediated NFkB upregulation, colorimetric assay. Format: cell-based. To be noted: brief treatment, unconjugated compound. On the procedure:
(§1) In order to study the function and efficacy of the cleavable prodrug, in vitro experiments were performed challenging mouse islets with LPS at different times post-modification. […] HEK Blue hTLR4 reporter cells were treated with either free TAK-242 or the TAK-PhSO2-Linker prodrug, followed by LPS challenge.
(§2) Data represented as means±SEM (n=3 per group). Statistical significance determined by two-tailed unpaired t test. n.s. means not significant.

For data set [2], the target named is T2, TLR4 (Mus musculus, UniProt Q9QUK6).
T2 construct: from tissue; host or cells: pancreatic islets of C57BL/6 mice
T2 sequence (Q9QUK6 26-835): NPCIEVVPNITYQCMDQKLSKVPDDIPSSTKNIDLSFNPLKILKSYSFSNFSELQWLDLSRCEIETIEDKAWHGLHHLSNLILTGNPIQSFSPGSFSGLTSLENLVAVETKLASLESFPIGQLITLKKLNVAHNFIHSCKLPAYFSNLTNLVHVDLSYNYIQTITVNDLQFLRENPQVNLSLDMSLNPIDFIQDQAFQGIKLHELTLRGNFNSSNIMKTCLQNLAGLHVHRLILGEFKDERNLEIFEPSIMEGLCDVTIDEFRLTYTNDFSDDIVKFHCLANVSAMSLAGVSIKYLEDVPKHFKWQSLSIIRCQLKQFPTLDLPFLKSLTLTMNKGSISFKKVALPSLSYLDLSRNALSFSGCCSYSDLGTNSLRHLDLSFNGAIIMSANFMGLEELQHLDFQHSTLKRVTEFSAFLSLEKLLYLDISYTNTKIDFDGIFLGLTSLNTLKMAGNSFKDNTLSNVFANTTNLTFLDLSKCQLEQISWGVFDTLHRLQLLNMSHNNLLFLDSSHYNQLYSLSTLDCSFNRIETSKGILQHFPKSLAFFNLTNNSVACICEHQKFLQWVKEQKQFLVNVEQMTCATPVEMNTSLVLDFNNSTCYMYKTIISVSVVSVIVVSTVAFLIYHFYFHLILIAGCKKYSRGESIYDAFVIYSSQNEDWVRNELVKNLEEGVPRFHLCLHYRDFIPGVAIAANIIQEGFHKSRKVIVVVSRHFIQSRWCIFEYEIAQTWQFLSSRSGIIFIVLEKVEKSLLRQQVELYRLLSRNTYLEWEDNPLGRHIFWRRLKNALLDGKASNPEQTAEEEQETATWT
Kind of data set: LPS challenge of drug-eluting mouse islets, IL-6 expression (Example 15). Format: cell-based. To be noted: for protection from LPS challenge (IL-6 expression): 24 h after modification or treatment. On the procedure: as §1, §2

Data set [3] can be described thus: Linker prodrug stability and release kinetics in PBS by LC-MS. The data set is classed as physicochemical. To be noted: phosphate-buffered saline; PBS pH 7.4, 37° C.; read-out: half-life of TAK-PhSO2-Linker (release of free TAK-242) (converted). On the procedure: The stability of the linker prodrug was explored in this example. The TAK-PhSO2-Linker compound was incubated in phosphate-buffered saline (PBS; pH 7.4) at 37° C., and the solution sampled over the course of several days. Liquid chromatography-mass spectrometry (LC-MS) was used to identify and quantitate the compounds released from this prodrug.

The target of data set [4] is T2, TLR4. Kind of data set: Extended protection of modified islets, IL-6 mRNA after LPS challenge (Example 5). The data set is classed as cell-based, murine. To be noted: LPS 2 ug/mL 4 hrs, 24 hrs after treatment or islet modification; unprotected islets ~59-fold. On the procedure: Compared to free TAK-242 pre-treatment, the TAK-Linker compound covalently attached to the islet surface provides extended protection.
First, islets were modified with either TAK-Linker or TAK-HexOH (1 hr NHS-DBCO followed by 1 hr TAK compounds), or treated with free TAK-242 (3 uM, 30 min @37° C.). All islets were rinsed with culture media (RPMI 1640, 10% FBS) prior to culturing. After overnight culture, the treated groups were challenged with LPS (2 ug/mL, 4 hrs @ 37° C.), a TLR4-specific agonist, and compared to unprotected islets (LPS) and unprotected/untreated control islets.
Total RNA was isolated from the islets for mRNA analysis. The gene expression of cytokine IL-6 was used for evaluation due to its key role in acute inflammation.

Data set [5] concerns the target T2, TLR4. In words: LPS challenge of mouse islets, RT-PCR gene expression and multiplex cytokine analysis. The data set is classed as cell-based, C57BL/6 mice. On the procedure: To initially investigate whether free TAK-242 can protect islets from TLR4-mediated inflammation, inflammatory responses in islets from C57BL/6 mice challenged with the canonical TLR4 ligand lipopolysaccharide (LPS) were examined. As discussed in detail below, islets were treated with TAK-242 (3 μM for 30 min) before a 24-h challenge with a high dose of LPS (2 μg/mL). After 24 h, culture media was analyzed by multiplex assay, and mRNA was isolated from islet cells for analysis by real-time polymerase chain reaction (RT-PCR).
Materials and Methods. After overnight culture, islets were washed in Dulbecco's PBS (Caisson Labs, Smithfield, Utah, USA) before treatment with TAK-242 (3 μM, 30 min; MedchemExpress) and 2 μg/mL LPS-EB (Ultrapure from Escherichia coli O111:B4; Invivogen) for 24 h at 37° C. and 5% CO2. Islets were washed once with cold Dulbecco's PBS immediately after treatment, and total RNA was isolated from samples using TRIzol […] and converted to cDNA using a high capacity cDNA reverse transcription kit (Applied Biosystems) following manufacturer protocols. Quantitative expression of genes of interest was determined using RT2 SYBR Green qPCR master mix (Qiagen) on a Bio-Rad CFX Connect (Bio-Rad) with the following program: 95° C., 10 min and 40 cycles of 95° C., 15 sec, 60° C., 1 min. Primers for quantitative real-time PCR analysis were purchased from commercially available stock from Integrated DNA Technologies (Coralville). Relative gene expression was calculated using the 2-ΔΔCT method normalized to 18S mRNA. Cytokines from assay culture media were analyzed using Milliplex MCYTOMAG-70K Assay (EMD Millipore). Samples were prepared following manufacturer guidelines. Analysis was performed after overnight incubation at 4° C. on a Luminex 200 (Luminex). Samples were assayed in triplicate and analyzed in triplicate for cDNA or in duplicate for multiplex assay.

The test system of data set [6] is TLR4. To be noted: human and murine models; depending on cell type; read-out: TLR4 inhibition IC50; cited from earlier work.
The test system of data set [7] is MIN6 cells. Kind of data set: MTT viability assay in MIN6 beta cells. Format: cell-based. To be noted: days 1, 3 and 7, effective concentrations. On the procedure:
MIN6 cells were seeded in a 96-well plate at 15,000 cells per well in RPMI. After overnight culture, culture media was replaced with media containing the indicated TAK-242 concentrations. The control (0 nM TAK-242) contained 0.1% DMSO. Media was changed on day 3. On days 1, 3, and 7, an MTT viability assay was performed. Data are represented as means±SEM. P>0.05 for all samples (one-way ANOVA with Tukey's multiple-comparisons test).

In data set [8] the test system is streptozotocin-induced diabetes. In words: Syngeneic islet transplant in streptozotocin-induced diabetic mice. Format: in vivo, C57BL/6 mice. The protocol:
With the promising in vitro results described above, islet transplantation experiments were performed in a syngeneic wild-type C57BL/6 streptozotocin-induced diabetes model. Recipient male C57BL/6 mice 6-7 weeks old were made diabetic by a single intraperitoneal injection of streptozotocin (200 mg/kg; Sigma-Aldrich). Diabetic mice are defined as having a nonfasting blood glucose >400 mg/dL for 2 consecutive days. Prior to transplantation, islets were untreated, pretreated with 3 μM TAK-242, or modified with TAK-PhSO2-Linker as described above. Diabetic C57BL/6 mice were anesthetized under isofluorane, and a field between the rib cage and pelvis on the left side was disinfected by 1% providone iodine scrub and 70% ethanol. A minimal incision (˜8 to 10 mm) into the peritoneum was made to expose the kidney, and a small cut (˜2 mm) was made in the kidney capsule using a 30G needle. Then a flame-blunted glass pipette tip was inserted into the kidney capsule through the cut to create a pocket between the renal cortex and capsule. Islets were then injected into the pocket via PE-50 polyethylene tubing (Becton Dickinson) connected to a 1 mL syringe filled with RPMI 1640 driven by an NE-300 syringe pump (New Era Pump Systems). At the completion of islet infusion, the incision was closed with 4-0 violet monofilament (Ethicon) via continuous nonlocking sutures. After closing, mice received a 0.1 mg/kg bolus of buprenorphine subcutaneously near the incision. Engraftment success was measured by nonfasting blood glucose measurements 5 times a week over a 4-week period with a Breeze 2 Glucose Monitor (Bayer). Mice were considered cured on the first day of two consecutive glucose measurements below 200 mg/dL (˜11 mM).
Diabetic mice were separated into untreated (n=4), TAK-242 (n=6), and TAK-PhO2-Linker (n=6) groups. A marginal dose of ˜100 islets was determined by titrating doses of TAK-242-treated islets. […] Diabetic C57BL/6 mice were transplanted with (FIG. 33A) 200, (FIG. 33B) 150, or (FIG. 33C) 100 TAK-242-treated islets. Blood glucose was monitored for 4 weeks before IPGTT on day 30 and at nephrectomy on day 35. […] This marginal dose was transplanted into the kidney subcapsular space in each group, and blood glucose was monitored for 4 weeks.

In data set [9] the target is T2, TLR4. Kind of data set: rHMGB1 challenge of mouse islets, gene expression analysis. Format: cell-based, C57BL/6 mice. To be noted: 1 μg/mL rHMGB1, 4 h, TAK-242 pretreatment. The protocol: Similar results were observed when islets were challenged with high-mobility group box 1 (HMGB1; FIG. 26), an endogenous damage-associated molecular pattern (DAMP) known to elicit acute inflammation through TLR4. […] Islets from C57BL/6 mice were challenged with 1 μg/mL rHMGB1 with or without TAK-242 pretreatment. After 4 h, total RNA was isolated from the islets for gene expression analysis. The proinflammatory genes (A) CXCL10 and (B) CCL2 were examined in the samples. Data represented as means±SEM. *P<0.05 (n=3 for all samples, unpaired two-tailed t test).

As to `CCOC(=O)C1=CCCCC1S(=O)(=O)N(C(=O)OC(CCCCCN=[N+]=[N-])CS(=O)(=O)c1ccccc1)c1ccc(F)cc1Cl` (stereo not shown) [TAK-PhSO2-Linker], in [1], the “inhibition of TLR4-mediated NFkB upregulation after LPS challenge” value is given as “negligible TLR4-antagonist activity; also recorded: provided no protection; also recorded: no significant protection”. The “protection from LPS challenge (IL-6 expression)” value in data set [2] was “significantly protected from LPS challenge; also recorded: significantly better than that of free TAK-242 alone; also recorded: significantly protected against LPS-mediated inflammation”. Moreover, in data set [3], the half-life is about 25 h. Further, the “increase in IL-6 expression” value in data set [4] is reported as about 3 fold.

For `O=C(CCC(=O)N1Cc2ccccc2C#Cc2ccccc21)NCCOCCOCCOCCOCCC(=O)ON1C(=O)CCC1=O` [NHS-PEG4-DBCO, dibenzocyclooctyne-PEG4-N-hydroxysuccinimidyl ester], the “protection against LPS-mediated inflammation (IL-6)” value in data set [2] (islet surfaces functionalized only, no prodrug) is “no protection against LPS-mediated inflammation”.

In the case of `CCOC(=O)C1=CCCCC1S(=O)(=O)Nc1ccc(F)cc1Cl` (stereo not shown) [TAK-242, ethyl 6-(N-(2-chloro-4-fluorophenyl)sulfamoyl)cyclohex-1-ene-1-carboxylate], the CXCL10 gene expression in data set [5] (3 μM TAK-242 pretreatment 30 min, 24 h after 2 μg/mL LPS, LPS alone 26-fold) came out at 0.91 fold. Besides, the CCL2 gene expression in data set [5] (3 μM TAK-242 pretreatment 30 min, 24 h after 2 μg/mL LPS, LPS alone 55-fold) is given as 1.01 fold. Further, the “proinflammatory cytokines IL-6, CXCL1, CXCL10, CCL2, TNF-α in culture media” value in data set [5] (TAK-242 pretreatment, 24 h after LPS challenge, versus LPS alone) is recorded as “significantly lower levels of these cytokines”. Further, the IC50 in data set [6] is 1 to 33 nM. Further, the “inhibition of TLR4-mediated NFkB upregulation after LPS challenge” value in data set [1] is listed as “completely blocked LPS; also recorded: completely inhibited the upregulation of NFkB”. Moreover, the “toxicity to beta cells (MTT viability)” value in [7] is recorded as “negligible toxicity”. Further, the “protection from LPS challenge (IL-6 expression)” value in data set [2] is reported as “beings to lose its effectiveness by 24 h; also recorded: provided protection from TLR4-mediated inflammation 24 hours post treatment”. For the same molecule, the “inhibition of LPS-mediated inflammation” value in data set [2] (immediately after treatment) is “completely inhibit LPS-mediated inflammation”. Further, the “cure time and glycemic control, islet dose titration” value is “delayed cure time and exhibited significant average glycemic lability” in data set [8] (100 TAK-242-treated islets); “quick cure times and good glycemic control” in data set [8] (200 and 150 TAK-242-treated islets). Also, the “mean nonfasting blood glucose” value in [8] (100 islets, 4 weeks) was “demonstrated some control”. Moreover, the “mean time to cure” value in [8] (100 islets, cured = two consecutive glucose measurements below 200 mg/dL) amounted to 21.0 ± 4.9 days. Also, the “increase in IL-6 expression” value in data set [4] was about 32 fold. Moreover, the “CXCL10 and CCL2 gene expression after rHMGB1 challenge” value in data set [9] is listed as “protection of mouse islets against rHMGB1-mediated TLR4 inflammation”.
